From ChEMBL document CHEMBL4002566, “S-substituted 3,5-dinitrophenyl 1,3,4-oxadiazole-2-thiols and tetrazole-5-thiols as highly efficient antitubercular agents” (Eur J Med Chem, 2017)
Converted amounts (≈) assume the structure as drawn.

Columns and labels:
Assay type in all cases: functional
[1] = system: Candida albicans; assay: Antifungal activity against Candida albicans ATCC 44859 after 24 hrs by broth microdilution method; conditions: ATCC 44859, 24 h
[2] = system: Candida tropicalis; assay: Antifungal activity against Candida tropicalis 156 after 24 hrs by broth microdilution method; conditions: Candida tropicalis, 156, 24 h
[3] = system: Pichia kudriavzevii; assay: Antifungal activity against Candida krusei E28 after 24 hrs by broth microdilution method; conditions: E28, 24 h
[4] = system: Trichosporon asahii; assay: Antifungal activity against Trichosporon asahii 1188 after 24 hrs by broth microdilution method; conditions: Trichosporon asahii, 1188, 24 h
[5] = system: Aspergillus fumigatus; assay: Antifungal activity against Aspergillus fumigatus 231 after 24 hrs by broth microdilution method; conditions: Aspergillus fumigatus, 231, 24 h
[6] = system: Lichtheimia corymbifera; assay: Antifungal activity against Absidia corymbifera 272 after 24 hrs by broth microdilution method; conditions: Lichtheimia corymbifera, 272, 24 h
[7] = system: Trichophyton mentagrophytes; assay: Antifungal activity against Trichophyton mentagrophytes 445 after 72 hrs by broth microdilution method; conditions: Trichophyton mentagrophytes, 445, 72 h
[8] = system: Mycobacterium avium; assay: Antimycobacterial activity against Mycobacterium avium CNCTC My 330/88 after 21 days by micromethod; conditions: CNCTC My 330/88, 504 h
[9] = system: Mycobacterium tuberculosis; assay: Antimycobacterial activity against Mycobacterium tuberculosis CNCTC My 331/88 after 14 days by micromethod; conditions: CNCTC My 331/88, 336 h
[10] = system: Mycobacterium avium; assay: Antimycobacterial activity against Mycobacterium avium CNCTC My 330/88 after 14 days by micromethod; conditions: CNCTC My 330/88, 336 h
[11] = system: Mycobacterium kansasii; assay: Antimycobacterial activity against Mycobacterium kansasii CNCTC My 235/80 after 14 days by micromethod; conditions: CNCTC My 235/80, 336 h
[12] = system: Mycobacterium kansasii; assay: Antimycobacterial activity against Mycobacterium kansasii 6509/96 clinical isolate after 14 days by micromethod; conditions: 6509/96, 336 h
[13] = system: Mycobacterium tuberculosis; assay: Antimycobacterial activity against Mycobacterium tuberculosis CNCTC My 331/88 after 21 days by micromethod; conditions: CNCTC My 331/88, 504 h
[14] = system: Mycobacterium kansasii; assay: Antimycobacterial activity against Mycobacterium kansasii CNCTC My 235/80 after 21 days by micromethod; conditions: CNCTC My 235/80, 504 h
[15] = system: Mycobacterium kansasii; assay: Antimycobacterial activity against Mycobacterium kansasii CNCTC My 235/80 after 7 days by micromethod; conditions: CNCTC My 235/80, 168 h
[16] = system: Mycobacterium kansasii; assay: Antimycobacterial activity against Mycobacterium kansasii 6509/96 clinical isolate after 21 days by micromethod; conditions: 6509/96, 504 h
[17] = system: Mycobacterium kansasii; assay: Antimycobacterial activity against Mycobacterium kansasii 6509/96 clinical isolate after 7 days by micromethod; conditions: 6509/96, 168 h

Compound	MIC [1]	MIC [2]	MIC [3]	MIC [4]	MIC [5]	MIC [6]	MIC [7]	MIC [8]	MIC [9]	MIC [10]	MIC [11]	MIC [12]	MIC [13]	MIC [14]	MIC [15]	MIC [16]	MIC [17]
OC(Cn1cncn1)(Cn1cncn1)c1ccc(F)cc1F [FLUCONAZOLE]	0.82 µM (≈ 0.251 µg/mL)	1.6 µM (≈ 0.49 µg/mL)	105 µM (≈ 32.2 µg/mL)	210 µM (≈ 64.3 µg/mL)	> 500 µM	> 500 µM	105 µM (≈ 32.2 µg/mL)	–	–	–	–	–	–	–	–	–	–
Nc1cc(-c2nnc(SCc3ccc([N+](=O)[O-])cc3)o2)cc([N+](=O)[O-])c1	–	–	–	–	–	–	–	125 µM (≈ 46.7 µg/mL)	125 µM (≈ 46.7 µg/mL)	125 µM (≈ 46.7 µg/mL)	125 µM (≈ 46.7 µg/mL)	125 µM (≈ 46.7 µg/mL)	125 µM (≈ 46.7 µg/mL)	125 µM (≈ 46.7 µg/mL)	125 µM (≈ 46.7 µg/mL)	125 µM (≈ 46.7 µg/mL)	125 µM (≈ 46.7 µg/mL)
COc1ccc(CSc2nnc(-c3cc(N)cc([N+](=O)[O-])c3)o2)cc1	–	–	–	–	–	–	–	250 µM (≈ 89.6 µg/mL)	125 µM (≈ 44.8 µg/mL)	250 µM (≈ 89.6 µg/mL)	250 µM (≈ 89.6 µg/mL)	250 µM (≈ 89.6 µg/mL)	125 µM (≈ 44.8 µg/mL)	250 µM (≈ 89.6 µg/mL)	250 µM (≈ 89.6 µg/mL)	250 µM (≈ 89.6 µg/mL)	250 µM (≈ 89.6 µg/mL)
O=[N+]([O-])c1cc(-c2nnc(SCc3ccccc3)o2)cc(C(F)(F)F)c1	–	–	–	–	–	–	–	> 250 µM	1 µM (≈ 0.381 µg/mL)	> 250 µM	4 µM (≈ 1.53 µg/mL)	4 µM (≈ 1.53 µg/mL)	1 µM (≈ 0.381 µg/mL)	4 µM (≈ 1.53 µg/mL)	2 µM (≈ 0.763 µg/mL)	4 µM (≈ 1.53 µg/mL)	2 µM (≈ 0.763 µg/mL)
CCCCCSc1nnc(-c2cc([N+](=O)[O-])cc([N+](=O)[O-])c2)o1	–	–	–	–	–	–	–	32 µM (≈ 10.8 µg/mL)	0.03 µM (≈ 0.0102 µg/mL)	16 µM (≈ 5.41 µg/mL)	0.03 µM (≈ 0.0102 µg/mL)	0.03 µM (≈ 0.0102 µg/mL)	0.03 µM (≈ 0.0102 µg/mL)	0.03 µM (≈ 0.0102 µg/mL)	0.03 µM (≈ 0.0102 µg/mL)	0.03 µM (≈ 0.0102 µg/mL)	0.03 µM (≈ 0.0102 µg/mL)
COc1ccc(CSc2nnc(-c3cc(NC(C)=O)cc([N+](=O)[O-])c3)o2)cc1	–	–	–	–	–	–	–	> 500 µM	> 1000 µM	> 500 µM	> 1000 µM	> 1000 µM	> 1000 µM	> 1000 µM	> 1000 µM	> 1000 µM	> 1000 µM
O=[N+]([O-])c1cc(-c2nnc(S)o2)cc([N+](=O)[O-])c1	–	–	–	–	–	–	–	125 µM (≈ 33.5 µg/mL)	62 µM (≈ 16.6 µg/mL)	62 µM (≈ 16.6 µg/mL)	125 µM (≈ 33.5 µg/mL)	125 µM (≈ 33.5 µg/mL)	62 µM (≈ 16.6 µg/mL)	125 µM (≈ 33.5 µg/mL)	125 µM (≈ 33.5 µg/mL)	125 µM (≈ 33.5 µg/mL)	125 µM (≈ 33.5 µg/mL)
NNC(=O)c1ccncc1 [ISONIAZID]	–	–	–	–	–	–	–	> 250 µM	0.5 µM (≈ 0.0686 µg/mL)	> 250 µM	> 250 µM	4 µM (≈ 0.549 µg/mL)	1 µM (≈ 0.137 µg/mL)	–	> 250 µM	8 µM (≈ 1.1 µg/mL)	4 µM (≈ 0.549 µg/mL)
O=[N+]([O-])c1cc(-c2nnc(SC3CCCCC3)o2)cc([N+](=O)[O-])c1	–	–	–	–	–	–	–	32 µM (≈ 11.2 µg/mL)	0.03 µM (≈ 0.0105 µg/mL)	16 µM (≈ 5.61 µg/mL)	0.03 µM (≈ 0.0105 µg/mL)	0.03 µM (≈ 0.0105 µg/mL)	0.03 µM (≈ 0.0105 µg/mL)	0.03 µM (≈ 0.0105 µg/mL)	0.03 µM (≈ 0.0105 µg/mL)	0.03 µM (≈ 0.0105 µg/mL)	0.03 µM (≈ 0.0105 µg/mL)
Nc1cc(-c2nnc(SCc3ccc(Br)cc3)o2)cc([N+](=O)[O-])c1	–	–	–	–	–	–	–	125 µM (≈ 50.9 µg/mL)	125 µM (≈ 50.9 µg/mL)	125 µM (≈ 50.9 µg/mL)	125 µM (≈ 50.9 µg/mL)	125 µM (≈ 50.9 µg/mL)	125 µM (≈ 50.9 µg/mL)	125 µM (≈ 50.9 µg/mL)	125 µM (≈ 50.9 µg/mL)	125 µM (≈ 50.9 µg/mL)	125 µM (≈ 50.9 µg/mL)
O=[N+]([O-])c1cc(-c2nnc(SCc3ccccc3)o2)cc([N+](=O)[O-])c1	–	–	–	–	–	–	–	4 µM (≈ 1.43 µg/mL)	0.5 µM (≈ 0.179 µg/mL)	4 µM (≈ 1.43 µg/mL)	0.5 µM (≈ 0.179 µg/mL)	0.5 µM (≈ 0.179 µg/mL)	0.5 µM (≈ 0.179 µg/mL)	0.5 µM (≈ 0.179 µg/mL)	0.25 µM (≈ 0.0896 µg/mL)	0.5 µM (≈ 0.179 µg/mL)	0.25 µM (≈ 0.0896 µg/mL)
O=[N+]([O-])c1cc(O)cc(-c2nnc(SCc3ccc(Cl)c(Cl)c3)o2)c1	–	–	–	–	–	–	–	> 250 µM	> 250 µM	> 250 µM	> 250 µM	> 250 µM	> 250 µM	> 250 µM	> 250 µM	> 250 µM	> 250 µM
O=[N+]([O-])c1cc(-n2nnnc2SCc2ccccc2)cc([N+](=O)[O-])c1	–	–	–	–	–	–	–	8 µM (≈ 2.87 µg/mL)	0.5 µM (≈ 0.179 µg/mL)	4 µM (≈ 1.43 µg/mL)	2 µM (≈ 0.717 µg/mL)	2 µM (≈ 0.717 µg/mL)	1 µM (≈ 0.358 µg/mL)	4 µM (≈ 1.43 µg/mL)	1 µM (≈ 0.358 µg/mL)	2 µM (≈ 0.717 µg/mL)	1 µM (≈ 0.358 µg/mL)
